Laboratory results as given in ChEMBL document CHEMBL5653615 (J Biol Chem, 2013).

Tests used:
[1] = target: Mitogen-activated protein kinase 3 (Homo sapiens) (UniProt P27361); experiment: Inhibition of human ERK1 at 1.82 nM by HotSpot assay relative to control
[2] = target: Insulin receptor-related protein (Homo sapiens) (UniProt P14616); experiment: Inhibition of human IRR at 1.82 nM by HotSpot assay relative to control
[3] = target: T1, Mitogen-activated protein kinase 12 (Homo sapiens) (UniProt P53778); experiment: Inhibition of human P38g at 1.82 nM by HotSpot assay relative to control
T1 sequence (whole entry): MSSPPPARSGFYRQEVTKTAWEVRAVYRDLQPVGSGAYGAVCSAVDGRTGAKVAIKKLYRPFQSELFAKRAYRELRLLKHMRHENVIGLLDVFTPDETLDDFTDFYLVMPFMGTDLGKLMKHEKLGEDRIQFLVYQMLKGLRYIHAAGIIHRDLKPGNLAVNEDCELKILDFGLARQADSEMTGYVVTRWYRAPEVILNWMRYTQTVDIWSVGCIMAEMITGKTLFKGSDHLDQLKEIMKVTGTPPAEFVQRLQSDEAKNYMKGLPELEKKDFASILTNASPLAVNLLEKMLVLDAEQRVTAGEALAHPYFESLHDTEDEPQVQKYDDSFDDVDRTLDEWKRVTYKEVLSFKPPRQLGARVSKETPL

[4] = target: Tyrosine-protein kinase SYK (Homo sapiens) (UniProt P43405); experiment: Inhibition of human SYK at 1.82 nM by HotSpot assay relative to control
[5] = target: T2, Activin receptor type-1 (Homo sapiens) (UniProt Q04771); experiment: Inhibition of human ALK2 at 18.6 nM by HotSpot assay relative to control
T2 sequence (whole entry): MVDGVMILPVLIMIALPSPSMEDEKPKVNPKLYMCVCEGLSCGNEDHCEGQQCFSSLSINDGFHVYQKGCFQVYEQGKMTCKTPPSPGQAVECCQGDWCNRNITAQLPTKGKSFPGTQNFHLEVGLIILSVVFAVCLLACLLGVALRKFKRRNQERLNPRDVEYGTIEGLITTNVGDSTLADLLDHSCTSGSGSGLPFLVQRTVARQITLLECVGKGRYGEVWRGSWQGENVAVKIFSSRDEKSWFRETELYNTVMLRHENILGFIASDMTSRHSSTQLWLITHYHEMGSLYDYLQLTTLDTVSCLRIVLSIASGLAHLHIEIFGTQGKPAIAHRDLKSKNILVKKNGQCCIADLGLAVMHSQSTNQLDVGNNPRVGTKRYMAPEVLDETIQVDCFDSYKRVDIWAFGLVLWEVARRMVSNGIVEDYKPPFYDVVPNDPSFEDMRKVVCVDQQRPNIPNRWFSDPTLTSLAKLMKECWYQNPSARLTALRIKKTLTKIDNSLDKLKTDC

[6] = target: T3, TGF-beta receptor type-1 (Homo sapiens) (UniProt P36897); experiment: Inhibition of human ALK5 at 18.6 nM by HotSpot assay relative to control
T3 sequence (whole entry): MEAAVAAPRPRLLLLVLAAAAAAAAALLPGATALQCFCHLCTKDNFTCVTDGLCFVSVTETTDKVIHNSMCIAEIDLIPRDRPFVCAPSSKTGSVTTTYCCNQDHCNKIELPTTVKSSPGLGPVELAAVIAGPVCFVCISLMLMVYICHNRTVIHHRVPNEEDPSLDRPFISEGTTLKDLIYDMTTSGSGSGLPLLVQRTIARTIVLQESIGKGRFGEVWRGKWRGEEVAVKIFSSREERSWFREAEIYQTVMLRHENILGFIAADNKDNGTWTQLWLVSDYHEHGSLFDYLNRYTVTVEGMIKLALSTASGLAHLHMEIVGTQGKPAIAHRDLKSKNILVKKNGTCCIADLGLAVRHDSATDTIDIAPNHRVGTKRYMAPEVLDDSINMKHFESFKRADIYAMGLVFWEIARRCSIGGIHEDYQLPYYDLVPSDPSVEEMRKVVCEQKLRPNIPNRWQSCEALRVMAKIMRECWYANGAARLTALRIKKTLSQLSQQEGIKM

[7] = target: T4, G protein-coupled receptor kinase 3 (Homo sapiens) (UniProt P35626); experiment: Inhibition of human GRK3 at 18.6 nM by HotSpot assay relative to control
T4 sequence (whole entry): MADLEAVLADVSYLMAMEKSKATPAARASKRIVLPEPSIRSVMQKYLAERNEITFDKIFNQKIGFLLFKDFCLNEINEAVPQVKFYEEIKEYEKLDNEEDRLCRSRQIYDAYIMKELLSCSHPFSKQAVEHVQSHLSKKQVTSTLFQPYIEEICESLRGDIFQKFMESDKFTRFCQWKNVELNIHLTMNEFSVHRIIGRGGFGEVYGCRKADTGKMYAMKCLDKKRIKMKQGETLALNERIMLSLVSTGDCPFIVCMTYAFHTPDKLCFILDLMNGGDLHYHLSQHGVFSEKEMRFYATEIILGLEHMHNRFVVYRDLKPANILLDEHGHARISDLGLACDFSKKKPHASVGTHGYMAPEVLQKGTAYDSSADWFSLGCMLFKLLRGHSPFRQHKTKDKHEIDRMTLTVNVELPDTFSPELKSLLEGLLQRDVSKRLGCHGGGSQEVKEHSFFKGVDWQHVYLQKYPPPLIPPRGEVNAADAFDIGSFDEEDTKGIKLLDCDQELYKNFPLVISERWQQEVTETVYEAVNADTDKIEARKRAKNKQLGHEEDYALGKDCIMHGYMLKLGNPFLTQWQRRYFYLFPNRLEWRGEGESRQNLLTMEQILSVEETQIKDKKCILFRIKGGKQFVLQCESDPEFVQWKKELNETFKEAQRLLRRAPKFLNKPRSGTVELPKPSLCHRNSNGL

[8] = target: Death-associated protein kinase 3 (Homo sapiens) (UniProt O43293); experiment: Inhibition of human DAPK3 at 18.6 nM by HotSpot assay relative to control
Sequence of Death-associated protein kinase 3 (Homo sapiens) (O43293 whole entry, looked up): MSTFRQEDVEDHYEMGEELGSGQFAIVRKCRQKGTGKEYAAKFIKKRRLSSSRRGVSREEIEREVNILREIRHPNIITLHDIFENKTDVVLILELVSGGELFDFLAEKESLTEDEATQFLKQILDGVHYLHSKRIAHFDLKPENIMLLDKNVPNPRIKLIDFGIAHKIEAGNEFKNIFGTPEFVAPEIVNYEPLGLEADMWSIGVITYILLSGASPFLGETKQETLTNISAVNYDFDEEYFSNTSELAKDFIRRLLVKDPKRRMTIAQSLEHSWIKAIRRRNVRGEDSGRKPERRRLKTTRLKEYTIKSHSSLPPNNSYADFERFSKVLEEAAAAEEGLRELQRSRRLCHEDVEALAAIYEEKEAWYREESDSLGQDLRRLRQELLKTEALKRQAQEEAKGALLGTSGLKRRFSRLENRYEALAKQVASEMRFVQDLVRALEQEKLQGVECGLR

Sequence of Insulin receptor-related protein (Homo sapiens) (P14616 27-742 limits assumed): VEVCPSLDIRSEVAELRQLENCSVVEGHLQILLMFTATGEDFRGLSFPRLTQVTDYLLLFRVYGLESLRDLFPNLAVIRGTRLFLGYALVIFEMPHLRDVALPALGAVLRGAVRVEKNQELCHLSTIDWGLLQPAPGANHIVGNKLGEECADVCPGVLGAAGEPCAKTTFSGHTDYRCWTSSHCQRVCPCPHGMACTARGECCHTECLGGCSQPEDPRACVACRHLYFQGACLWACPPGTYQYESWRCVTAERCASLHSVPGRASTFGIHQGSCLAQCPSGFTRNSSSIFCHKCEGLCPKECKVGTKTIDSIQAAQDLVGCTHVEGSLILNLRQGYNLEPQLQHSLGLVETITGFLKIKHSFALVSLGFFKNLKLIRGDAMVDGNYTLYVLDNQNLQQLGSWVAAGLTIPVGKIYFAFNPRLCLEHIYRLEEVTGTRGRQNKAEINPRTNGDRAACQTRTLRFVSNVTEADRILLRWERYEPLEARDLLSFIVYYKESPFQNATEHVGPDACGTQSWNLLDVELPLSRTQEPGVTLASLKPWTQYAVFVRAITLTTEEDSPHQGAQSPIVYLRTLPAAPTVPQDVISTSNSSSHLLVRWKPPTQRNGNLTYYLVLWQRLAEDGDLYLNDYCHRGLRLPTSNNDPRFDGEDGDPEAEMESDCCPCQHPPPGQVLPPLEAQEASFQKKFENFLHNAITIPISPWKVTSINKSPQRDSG
Sequence of Insulin receptor-related protein (Homo sapiens) (P14616 747-1297 limits assumed): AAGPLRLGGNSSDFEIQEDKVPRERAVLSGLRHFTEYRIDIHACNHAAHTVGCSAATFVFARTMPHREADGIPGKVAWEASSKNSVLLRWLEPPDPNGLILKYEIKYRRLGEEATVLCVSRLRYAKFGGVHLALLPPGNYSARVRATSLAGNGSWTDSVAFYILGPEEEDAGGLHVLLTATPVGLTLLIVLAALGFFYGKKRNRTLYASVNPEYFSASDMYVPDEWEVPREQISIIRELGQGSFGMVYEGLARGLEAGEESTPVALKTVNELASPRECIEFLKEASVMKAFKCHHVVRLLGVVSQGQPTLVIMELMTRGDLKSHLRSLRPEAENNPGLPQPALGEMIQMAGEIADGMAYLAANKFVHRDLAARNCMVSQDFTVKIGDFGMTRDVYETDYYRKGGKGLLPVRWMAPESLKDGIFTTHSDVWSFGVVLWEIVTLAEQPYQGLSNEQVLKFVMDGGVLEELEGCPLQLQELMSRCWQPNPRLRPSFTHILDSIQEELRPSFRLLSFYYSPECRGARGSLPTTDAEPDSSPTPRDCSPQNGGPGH
Sequence of Mitogen-activated protein kinase 3 (Homo sapiens) (P27361 whole entry): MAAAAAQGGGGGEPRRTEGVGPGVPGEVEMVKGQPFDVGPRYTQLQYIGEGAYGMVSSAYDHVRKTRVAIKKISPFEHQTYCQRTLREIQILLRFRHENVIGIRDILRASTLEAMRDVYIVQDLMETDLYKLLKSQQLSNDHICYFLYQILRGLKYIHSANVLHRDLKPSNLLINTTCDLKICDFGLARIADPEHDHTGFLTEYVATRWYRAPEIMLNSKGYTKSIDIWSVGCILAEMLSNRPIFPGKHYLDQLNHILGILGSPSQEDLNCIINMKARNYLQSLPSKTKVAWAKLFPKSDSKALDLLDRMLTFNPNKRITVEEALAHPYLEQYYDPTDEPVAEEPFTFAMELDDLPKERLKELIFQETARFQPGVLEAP

SMILES	inhibition [1]	inhibition [2]	inhibition [3]	inhibition [4]	inhibition [5]	inhibition [6]	inhibition [7]	inhibition [8]
C[C@@]1(C(=O)Nc2ccc(F)nc2)CCCN1c1nc(Nc2cc(C3CC3)n[nH]2)c2cccn2n1	-2.81%	33.5%	-4.67%	-1.25%				
C[C@]1(O)C[C@@H](c2nc(-c3ccc4ccc(-c5ccccc5)nc4c3)c3c(N)nccn32)C1					1.44%	2.47%	-0.17%	6.02%
